Experimental data as given in US20190083521A1, “COMBINATION THERAPY FOR TREATING CANCER” (Epizyme, Inc., priority 2014, published 2019).
Each block holds one molecule with its values, some of them ahead of it.

Experiments:
MOLM-13 (MLL-AF9) cells [1] = assay: Example 7 primary screen: 300 nM EPZ-5676 pre-treatment, second compound 72 h, ATPLite, GI100 shift; format: cell-based, human; conditions: MOLM-13 (MLL-AF9); 300 nM EPZ-5676 pre-treatment vs DMSO
Protocol: (§1) Cells were split using EPZ-5676 or DMSO containing growth media and further incubated for an additional 3-day pre-treatment time. Cells were finally seeded in growth media containing EPZ-5676 or DMSO in 384-well plates at 500 cell/well density. Cells were then equilibrated in incubators for 24 hours before treatment with a second compound. Treated assay plates were incubated with a second compound for 72 hours. After this time, plates were developed for endpoint analysis using ATPLite to measure ATP content, which is used as an indicator of cell viability.
(§2) “N/D” means the GI100 of the second compound could not be determined for both conditions and “-” means not tested.
(§3) Growth Inhibition (GI) as a measure of cell viability: The cell viability of vehicle was measured at the time of dosing the second agent (T0) and after seventy-two hours (T72). A GI reading of 0% represents no growth inhibition—cells treated with test compound as compared to T72 vehicle signals were measured. […] A GI 200% represents complete death of all cells in the culture well. Compounds reaching an activity plateau of GI 200% are considered cytotoxic. GI is calculated by applying the following test and equation: […]

SKM-1 (non-MLLr) cells [2] = assay: as above; format: cell-based, human; conditions: SKM-1 (non-MLLr); 300 nM EPZ-5676 pre-treatment vs DMSO
Protocol: as §1, §2, §3

[3] = system: OCI-AML-4 (MLL-ENL) cells; assay: as above; format: cell-based; conditions: OCI-AML-4 (MLL-ENL); 300 nM EPZ-5676 pre-treatment vs DMSO
Protocol: as §1, §2, §3

MOLM-13 (MLL-AF9) cells [4] = assay: Example 7 retest: EPZ-5676 pre-treatment, second compound 72 h, Cell Titer Glo, growth inhibition; format: cell-based, human; design: GI100: unit not given here; conditions: MOLM-13 (MLL-AF9); for Combination result with EPZ-5676, Retest: 150 nM EPZ-5676 pre-treatment vs DMSO
Protocol: (§4) Cells were then treated with a second compound for 72 hours. After this time, plates were developed for endpoint analysis using Cell Titer Glo to measure ATP content, which is used as an indicator of cell viability.
as §2
as §3, with “(T72).” for “(T72). A GI reading of 0% represents no growth inhibition—cells treated with test compound as compared to T72 vehicle signals were measured.”

SKM-1 (non-MLLr) cells [5] = assay: as above; format: cell-based, human; design: GI100: unit not given here; conditions: SKM-1 (non-MLLr)
Protocol: as §4, §2
as §3, with “(T72).” for “(T72). A GI reading of 0% represents no growth inhibition—cells treated with test compound as compared to T72 vehicle signals were measured.”

[6] = system: OCI-AML-4 (MLL-ENL) cells; assay: as above; format: cell-based; conditions: OCI-AML-4 (MLL-ENL)
Protocol: as §4, §2
as §3, with “(T72).” for “(T72). A GI reading of 0% represents no growth inhibition—cells treated with test compound as compared to T72 vehicle signals were measured.”

THP-1 (MLL-AF9) cells = assay: as above; format: cell-based; design: GI100: unit not given here; conditions: NRAS G12D
Protocol: as §1, with “96-well plates.” for “384-well plates at 500 cell/well density.”, “treated” for “equilibrated in incubators for 24 hours before treatment with a second compound. Treated assay plates were incubated”, “Cell Titer Glo” for “ATPLite”
as §2, §3

ML-2 (MLL-AF6) cells = assay: as above; format: cell-based; design: GI100: unit not given here; conditions: ML-2 (MLL-AF6); KRAS A146T (het); second compound, 72 h
Protocol: as §4, §2
as §3, with “(T72).” for “(T72). A GI reading of 0% represents no growth inhibition—cells treated with test compound as compared to T72 vehicle signals were measured.”

RS4-11 (MLL-AF4) cells = assay: as above; format: cell-based; design: GI100: unit not given here; conditions: RS4-11 (MLL-AF4), Ras mutation status: None known, second compound, 72 h
Protocol: as §4, §2
as §3, with “(T72).” for “(T72). A GI reading of 0% represents no growth inhibition—cells treated with test compound as compared to T72 vehicle signals were measured.”

MOLM-13 (MLL-AF9) cells [7] = assay: Combination proliferation assay with Compound A2 (CellTiter-Glo, Chou-Talalay CI); format: cell-based, human; conditions: MOLM-13 (MLL-AF9); 7 Day Cotreatment Model
Protocol: (§5) The acute myelogenous leukemia cell lines MV4-11 (MLL-AF4) and MOLM-13 (MLL-AF9) were obtained from American Type Culture Collection (ATCC; Rockville, Md.) and Deutsche Sammlung von Mikroorganismen and Zellkulturen (DSMZ; Braunschweig, Germany) respectively.
(§6) Studies were performed using MLL-rearranged cell lines in vitro to evaluate the anti-proliferative effect of a combination of two agents together on cell growth. Initial proliferation studies were performed to determine the IC50 of a given compound in each cell line. The cell counts were measured by ATP quantitation using the Promega Cell Titer Glo kit and luminescence values corresponded to the amount of ATP in a given well.
(§7) Compounds were evaluated for synergy in the co-treatment phase by testing the compounds in a concentration range which was bracketed around their IC50 values. The compounds were plated to a 96 well plate in a matrix format (FIG. 3) which includes increasing concentrations of each drug in the combination in a constant ratio, in addition to the effect of each compound alone in the study. Cells were seeded and grown in the log-linear phase for 3 or 7 days in the co-treatment phase. Minimum inhibition (DMSO alone) controls were used in each plate to calculate fraction affected (Fa) of a test well. DMSO concentration was kept at 0.1% v/v.
(§8) The drug combination analysis was performed utilizing the Chou-Talalay method Synergy was determined using the software package Calcusyn by Biosoft. The combination index (CI) is a quantitative term used to describe the level of synergy or antagonism in a given test system. A combination index less than one indicates synergy, and a CI greater than one indicates antagonism. Further, strong synergism is achieved when the CI value falls below 0.3.
(§9) The HP-D300 digital dispenser (Tecan) was used to dispense compounds in a combinatorial matrix. […] Cell viability was measured via ATP content using CellTiter-Glo® (Promega).
(§10) Viability was determined using CellTiter-Glo® (Promega).
Cell viability was measured via ATP content using CellTiter-Glo® (Promega).
as §6, with “Proliferation studies” for “Studies”, “MOLM-13, MV4-11 and SKM-1” for “MLL-rearranged”, “cancer cell killing” for “anti-proliferative”, “IC50 values” for “IC50”, “correspond” for “corresponded”
(§11) These studies were performed to evaluate both the combinatorial effect of compounds on cell killing and the durability of the effect by washing out one of the agents.
(§12) Compounds evaluated for synergy in the co-treatment phase were tested in a range which was bracketed around the IC50's. The compounds were plated to a 96 well plate in a matrix format which includes increasing concentrations of each drug in the combination in a constant ratio, in addition to the effect of each compound alone in the study. Cells were seeded and grown in the log-linear phase for 3 or 7 days in the cotreatment phase. Maximum and minimum inhibition (DMSO alone) controls were used in each plate to calculate fraction affected (Fa) of a test well. DMSO concentration was kept at 0.1% v/v. The drug combination analysis was performed utilizing the Chou-Talalay method. Synergy was determined using the software package Calcusyn by Biosoft. The combination index (CI) is the term used to describe the level of synergy or antagonism in a given test system. A combination index less than one indicates synergy, and a CI greater than one indicates antagonism.
(§13) The drug combination analysis was performed using the Chou-Talalay method. Graphs representing values of combination index (CI) versus Fractional effect (Fa) known as Fa-CI plots were generated and synergy was evaluated.

MV4-11 (MLL-AF4) cells = assay: as above; format: cell-based, human; conditions: MV4-11 (MLL-AF4); 7 Day Cotreatment Model
Protocol: as §5, §6, §7, §8, §9, §10
as §6, with “Proliferation studies” for “Studies”, “MOLM-13, MV4-11 and SKM-1” for “MLL-rearranged”, “cancer cell killing” for “anti-proliferative”, “IC50 values” for “IC50”, “correspond” for “corresponded”
as §11, §12
as §13, with “evaluated. Drug synergy was statistically defined by CI values less than 1, antagonism by CI>1 and additive effect by CI equal to 1.” for “evaluated.”

[8] = system: SKM-1 (non-MLL-rearranged AML) cells; assay: as above; format: cell-based, human; conditions: SKM-1; Compound A2 concentrations greater than 1000 nM
Protocol: Graphs representing values of combination index (CI) versus Fractional effect (Fa) known as Fa-CI plots were generated and synergy was evaluated.
as §10
MV4-11 cells were maintained in IMDM supplemented with 10% fetal bovine serum. MOLM-13 and SKM-1 cells were maintained in Roswell Park Memorial Institute medium (RPMI) supplemented with 10% fetal bovine serum. They were cultured in flasks or plates in a humidified 5% CO2 atmosphere.
as §6, with “Proliferation studies” for “Studies”, “MOLM-13, MV4-11 and SKM-1” for “MLL-rearranged”, “cancer cell killing” for “anti-proliferative”, “IC50 values” for “IC50”, “correspond” for “corresponded”
as §12, §13

[9] = 300 nM EPZ-5676 pre-treatment vs DMSO
[10] = KRAS K117N (homo), second compound, 72 h
[11] = NRAS Q61R (het), second compound, 72 h

SMILES: Cn1c(Nc2ccc(C(F)(F)F)cc2)nc2cc(Oc3ccnc(-c4ncc(C(F)(F)F)[nH]4)c3)ccc21 [RAF265]
Combination result with EPZ-5676, Primary screen (MOLM-13 (MLL-AF9) cells [1]): Synergy (considered synergistic if the GI100 (Growth inhibition 100) value of the second compound decreased by 2-fold or more when EPZ-5676 was added as compared to the DMSO control)

GI50 (MOLM-13 (MLL-AF9) cells [4]; Homo sapiens, Ras mutation status: None known, second compound, 72 h): 1250 nM
GI50 (SKM-1 (non-MLLr) cells [5]; [10]): 20 nM
GI50 [6, 11]: 116 nM
GI50 (THP-1 (MLL-AF9) cells): 160 nM
GI50 (RS4-11 (MLL-AF4) cells; Homo sapiens): > 10000 nM
SMILES: Cn1cnc2c(F)c(Nc3ccc(Br)cc3Cl)c(C(=O)NOCCO)cc21 [Selumetinib (AZD6244), Selumetinib]
Combination result with EPZ-5676, Primary screen (MOLM-13 (MLL-AF9) cells [1]): Synergy (considered synergistic if the GI100 (Growth inhibition 100) value of the second compound decreased by 2-fold or more when EPZ-5676 was added as compared to the DMSO control)
Combination result with EPZ-5676, Primary screen (SKM-1 (non-MLLr) cells [2]): Synergy (considered synergistic if the GI100 (Growth inhibition 100) value of the second compound decreased by 2-fold or more when EPZ-5676 was added as compared to the DMSO control)
Combination result with EPZ-5676, Primary screen [3]: Synergy (considered synergistic if the GI100 (Growth inhibition 100) value of the second compound decreased by 2-fold or more when EPZ-5676 was added as compared to the DMSO control)
Combination result with EPZ-5676, Retest (MOLM-13 (MLL-AF9) cells [4]): Synergy (considered synergistic if the GI100 (Growth inhibition 100) value of the second compound decreased by 2-fold or more when EPZ-5676 was added as compared to the DMSO control)
Result (combination with EPZ-5676) (MOLM-13 (MLL-AF9) cells [4]; Ras mutation status: None known): Synergy (considered synergistic if the GI100 (Growth inhibition 100) value of the second compound decreased by 2-fold or more when EPZ-5676 was added as compared to the DMSO control)
GI100 (MOLM-13 (MLL-AF9) cells [4]; Ras mutation status: None known, second compound, 72 h): 7.28
Combination result with EPZ-5676, Retest (SKM-1 (non-MLLr) cells [5]; [9]): Synergy (considered synergistic if the GI100 (Growth inhibition 100) value of the second compound decreased by 2-fold or more when EPZ-5676 was added as compared to the DMSO control)
Result (combination with EPZ-5676) (SKM-1 (non-MLLr) cells [5]; KRAS K117N (homo)): Synergy (considered synergistic if the GI100 (Growth inhibition 100) value of the second compound decreased by 2-fold or more when EPZ-5676 was added as compared to the DMSO control)
GI100 (SKM-1 (non-MLLr) cells [5]; [10]): 0.12
Combination result with EPZ-5676, Retest [6, 9]: Synergy (considered synergistic if the GI100 (Growth inhibition 100) value of the second compound decreased by 2-fold or more when EPZ-5676 was added as compared to the DMSO control)
Result (combination with EPZ-5676) ([6]; NRAS Q61R (het)): Synergy (considered synergistic if the GI100 (Growth inhibition 100) value of the second compound decreased by 2-fold or more when EPZ-5676 was added as compared to the DMSO control)
GI100 [6, 11]: 3.169
GI100 (THP-1 (MLL-AF9) cells): >10
GI50 (ML-2 (MLL-AF6) cells): 40 nM
GI100 (ML-2 (MLL-AF6) cells): 0.93
GI100 (RS4-11 (MLL-AF4) cells): >10

SMILES: C[C@]12C=CC(=O)C=C1CC[C@@H]1[C@@H]2[C@@H](O)C[C@@]2(C)[C@H]1CC[C@]2(O)C(=O)CO [Prednisolone]
Combination effect with Compound A2 (Table 4) (MOLM-13 (MLL-AF9) cells [7]): antagonism
Combination effect with Compound A2 (Table 4) (MV4-11 (MLL-AF4) cells): antagonism
Antiproliferative activity in presence of Compound A2 [8]: enhanced antiproliferative activity

SMILES: CNC(=O)c1cc(Oc2ccc(NC(=O)Nc3ccc(Cl)c(C(F)(F)F)c3)cc2)ccn1 [Sorafenib]
Combination result with EPZ-5676, Primary screen (MOLM-13 (MLL-AF9) cells [1]): Synergy (considered synergistic if the GI100 (Growth inhibition 100) value of the second compound decreased by 2-fold or more when EPZ-5676 was added as compared to the DMSO control)
Combination result with EPZ-5676, Retest (MOLM-13 (MLL-AF9) cells [4]): Synergy (considered synergistic if the GI100 (Growth inhibition 100) value of the second compound decreased by 2-fold or more when EPZ-5676 was added as compared to the DMSO control)
